# Assay results as given in USRE39497E1, “Storage of materials” (Nektar Therapeutics, priority 1989, dated 2007).
# How the values were obtained:
# [1] = L. Slade and H. Levine, Pure Appl. Chem. 60 1841 (1988); cited from earlier work
# [2] = Glass transition temperature Tg (differential scanning calorimeter); type: physicochemical; details: determined by the applicant
# Description: Tg values can be determined with a differential scanning calorimeter and can be detected as a point at which a plot of heat input against temperature passes through an inflection point—giving a maximum of the first temperature derivative.
molecule,measurement,setting,value
OC[C@H]1O[C@H](O[C@H]2[C@H](O)[C@@H](O)C(O)O[C@@H]2CO)[C@H](O)[C@@H](O)[C@@H]1O (mixture of isomers) [maltose],Tg,[1],43 °C
OC[C@H]1O[C@@](CO)(O[C@H]2O[C@H](CO)[C@@H](O)[C@H](O)[C@H]2O)[C@@H](O)[C@@H]1O [sucrose],Tg value,[2],55 °C
maltotriose,Tg,[1],76 °C
